The values below come from patent US20230027361A1, “METTL3 MODULATORS” (priority 2019, published 2023).

Where two headings read alike, the source gives them in different places. A value given as a limit tells only on which side of the number the result lay.

For orientation: IC50 means the point on the concentration scale where inhibition reaches its midpoint.

In assay [1] the target is PRMT5-MEP50 (Homo sapiens, UniProt O14744). As to the kind of experiment: PRMT5 Assay (PRMT5 biochemical assay). The method, boiled down:
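Radiometric methyltransferase read-out: after 60 min reaction, excess unlabelled SAM (15 μM) stops turnover and biotinylated H4 peptide (100 nM) carrying 3H-methyl from 250 nM 3H-SAM is captured on streptavidin flashplates (2 h, 25° C) for scintillation counting. Enzyme, 2.5 nM PRMT5-MEP50, was preincubated 5 min with compound in pH 8.0 Tris buffer with DTT and Tween.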

Assay [2] addresses METTL1/WDR4 (Homo sapiens, UniProt Q9UBP6). Put plainly: METTL1 Assay (METTL1 biochemical assay). The method, boiled down:
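Radiometric methyltransfer by METTL1/WDR4 (6.25 nM f.c., 5 min preincubation) at ambient temperature in HEPES pH 7.5, KCl, MgCl2, DTT; started with 25 nM 3′-biotinylated RNA and 60 nM 3H-SAM, run 20 min, quenched with 15 μM cold SAM. Product captured on streptavidin flashplates (2 h, 25° C), counted by scintillation.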

Assay [3] has as its system MOLM-13 cells. As to the kind of experiment: MOLM-13 48 Hour Cell Proliferation Assay. It is filed as cell-based. The conditions noted are these: Homo sapiens. Put shortly:
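IC50 derived by 4-parameter logistic regression of CellTiter-Glo luminescence, scaled between DMSO (0% death) and staurosporine (100% death) controls. Compounds applied for 48 h at 37 °C as 10-point, 4-fold dilutions, 0.25% DMSO final, to MOLM-13 cells pre-seeded overnight in RPMI 1640 plus 10% FBS.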

The target of assay [4] is METTL3/METTL14 (Homo sapiens, UniProt Q86U44). As to the kind of experiment: METTL3-14 Standard Enzyme Assay (METTL3 biochemical assay). The method, boiled down: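 Tritium transfer from ³H-SAM (100 nM) to biotinylated RNA (100 nM) captured on streptavidin flashplates and counted by scintillation. Enzyme complex (2.5 nM) with compound, 5 min preincubation, 30 min reaction at ambient temperature, HEPES pH 7.5 buffer, stopped by excess unlabeled SAM.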
METTL3/METTL14, sequence (Q86U44 whole entry, species assumed): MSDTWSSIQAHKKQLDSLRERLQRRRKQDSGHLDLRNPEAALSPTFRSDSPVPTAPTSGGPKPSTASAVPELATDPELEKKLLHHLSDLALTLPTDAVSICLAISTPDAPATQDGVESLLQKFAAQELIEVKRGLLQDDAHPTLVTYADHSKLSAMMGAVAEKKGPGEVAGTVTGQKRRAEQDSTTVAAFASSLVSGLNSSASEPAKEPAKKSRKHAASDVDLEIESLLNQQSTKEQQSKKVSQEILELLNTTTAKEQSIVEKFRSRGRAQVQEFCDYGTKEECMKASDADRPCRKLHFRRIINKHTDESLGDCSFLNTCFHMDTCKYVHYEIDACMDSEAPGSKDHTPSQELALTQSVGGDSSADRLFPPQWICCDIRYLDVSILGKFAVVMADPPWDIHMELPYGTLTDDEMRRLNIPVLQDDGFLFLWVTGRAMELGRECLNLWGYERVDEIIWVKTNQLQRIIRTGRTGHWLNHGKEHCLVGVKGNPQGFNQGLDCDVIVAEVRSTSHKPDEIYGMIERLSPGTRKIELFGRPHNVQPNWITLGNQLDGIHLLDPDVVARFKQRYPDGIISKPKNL
METTL3/METTL14, sequence (Q9HCE5 whole entry partner, species assumed): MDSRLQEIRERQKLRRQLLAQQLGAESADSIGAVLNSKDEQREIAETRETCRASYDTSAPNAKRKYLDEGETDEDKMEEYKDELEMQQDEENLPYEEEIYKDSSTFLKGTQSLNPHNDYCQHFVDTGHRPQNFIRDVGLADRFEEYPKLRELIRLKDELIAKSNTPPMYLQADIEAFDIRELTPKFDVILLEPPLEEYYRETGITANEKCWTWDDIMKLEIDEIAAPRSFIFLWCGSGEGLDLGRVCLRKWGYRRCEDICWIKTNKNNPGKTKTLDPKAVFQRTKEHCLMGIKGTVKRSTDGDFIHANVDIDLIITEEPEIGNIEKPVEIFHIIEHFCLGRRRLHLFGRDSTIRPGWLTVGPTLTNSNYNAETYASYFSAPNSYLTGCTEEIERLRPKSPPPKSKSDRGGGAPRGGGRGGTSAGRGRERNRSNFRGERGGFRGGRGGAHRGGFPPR

[5] abbreviates: PRMT5 biochemical assay; read-out: PRMT5 IC50.
Where [6] appears, read: read-out: METTL1 IC50, METTL1 biochemical assay.
The mark [7] stands for this setting: METTL3 biochemical assay; read-out: METTL3 IC50.
The mark [8] stands for this setting: read-out: PRMT5 IC50; PRMT5 biochemical assay.
Setting [9] is: read-out: METTL3 IC50; METTL3 biochemical assay.

METTL1/WDR4, sequence (Q9UBP6 whole entry, species assumed): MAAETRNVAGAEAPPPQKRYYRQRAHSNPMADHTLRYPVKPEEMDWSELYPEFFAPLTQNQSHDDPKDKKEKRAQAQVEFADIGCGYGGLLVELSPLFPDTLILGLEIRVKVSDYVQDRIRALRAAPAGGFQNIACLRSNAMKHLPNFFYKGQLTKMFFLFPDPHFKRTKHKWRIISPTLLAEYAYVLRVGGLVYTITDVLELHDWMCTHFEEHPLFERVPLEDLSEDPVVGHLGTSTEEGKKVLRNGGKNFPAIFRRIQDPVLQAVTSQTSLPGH
METTL1/WDR4, sequence (P57081 whole entry partner, species assumed): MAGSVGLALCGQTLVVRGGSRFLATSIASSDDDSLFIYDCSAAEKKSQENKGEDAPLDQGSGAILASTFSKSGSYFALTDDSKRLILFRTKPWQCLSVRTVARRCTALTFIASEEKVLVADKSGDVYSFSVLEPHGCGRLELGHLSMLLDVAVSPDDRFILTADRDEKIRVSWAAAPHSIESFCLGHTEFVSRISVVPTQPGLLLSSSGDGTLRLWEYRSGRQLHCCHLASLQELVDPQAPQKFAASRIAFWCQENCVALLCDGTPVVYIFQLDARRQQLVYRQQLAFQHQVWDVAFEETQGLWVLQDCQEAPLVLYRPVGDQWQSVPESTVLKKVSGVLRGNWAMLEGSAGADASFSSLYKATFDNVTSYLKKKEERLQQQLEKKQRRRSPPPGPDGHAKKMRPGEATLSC
PRMT5-MEP50, sequence (O14744 whole entry): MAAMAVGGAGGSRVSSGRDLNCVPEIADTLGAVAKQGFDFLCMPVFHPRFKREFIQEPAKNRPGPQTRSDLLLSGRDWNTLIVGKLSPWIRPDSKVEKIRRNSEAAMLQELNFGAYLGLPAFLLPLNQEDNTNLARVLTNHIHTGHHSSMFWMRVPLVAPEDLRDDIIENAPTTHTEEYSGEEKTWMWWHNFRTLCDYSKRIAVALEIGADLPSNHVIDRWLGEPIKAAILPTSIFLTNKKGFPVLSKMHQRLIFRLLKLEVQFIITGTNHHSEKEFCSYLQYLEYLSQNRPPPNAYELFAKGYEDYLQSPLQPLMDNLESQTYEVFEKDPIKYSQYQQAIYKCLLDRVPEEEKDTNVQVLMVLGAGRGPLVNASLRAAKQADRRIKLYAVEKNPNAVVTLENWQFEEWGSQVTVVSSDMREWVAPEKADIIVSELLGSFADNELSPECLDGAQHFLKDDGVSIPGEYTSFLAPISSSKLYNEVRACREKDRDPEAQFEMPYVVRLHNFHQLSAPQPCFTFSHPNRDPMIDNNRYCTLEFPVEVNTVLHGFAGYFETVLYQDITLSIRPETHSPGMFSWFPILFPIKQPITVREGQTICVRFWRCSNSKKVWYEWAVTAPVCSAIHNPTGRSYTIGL
PRMT5-MEP50, sequence (Q9BQA1 whole entry partner): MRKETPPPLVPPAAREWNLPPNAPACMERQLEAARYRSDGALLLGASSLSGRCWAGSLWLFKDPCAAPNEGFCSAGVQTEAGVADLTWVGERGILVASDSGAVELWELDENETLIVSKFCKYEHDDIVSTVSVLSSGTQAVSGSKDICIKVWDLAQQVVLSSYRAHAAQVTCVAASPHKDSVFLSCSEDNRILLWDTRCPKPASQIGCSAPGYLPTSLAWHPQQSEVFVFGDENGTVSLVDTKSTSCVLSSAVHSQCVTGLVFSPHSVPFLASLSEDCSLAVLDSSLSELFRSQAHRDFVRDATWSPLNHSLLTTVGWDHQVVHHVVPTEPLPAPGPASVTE

For the compound `CNc1ccc2ccc(OC[C@H]3O[C@@H](n4cc(C5CC5)c5c(N)ncnc54)[C@@H](F)[C@@H]3O)cc2n1` [I-29], the IC50 in assay [1] (setting [5]) was 100 to 1000 nM; in assay [2] (setting [6]), greater than 1000 nM; in assay [3] it was less than 1000 nM; in assay [4] (setting [7]), less than 10 nM.

Regarding `CNc1ccc2ccc(OC[C@H]3O[C@@H](n4cc(C5CCCC5)c5c(N)ncnc54)[C@H](O)[C@@H]3O)cc2n1` [I-33, (2R,3R,4S,5R)-2-(4-amino-5-cyclopentyl-7H-pyrrolo[2,3-d]pyrimidin-7-yl)-5-(((2-(methylamino)quinolin-7-yl)oxy)methyl)tetrahydrofuran-3,4-diol], the IC50 in assay [1] (setting [5]) is less than 10 nM; in assay [2], greater than 1000 nM; in assay [3], 1000 to 10000 nM; in assay [4] (setting [7]), less than 10 nM.

Take `CNc1ccc2ccc(OC[C@H]3O[C@@H](n4cc(CC5CC5)c5c(N)ncnc54)[C@@H](F)[C@@H]3O)cc2n1` [I-36]: the IC50 in assay [1] (setting [5]) was 100 to 1000 nM; in assay [2] (setting [6]) it was greater than 1000 nM; in assay [3] it was 1000 to 10000 nM; in assay [4] (setting [7]), less than 10 nM.

Consider `CNc1ccc2ccc(CC[C@H]3O[C@@H](n4cc(C5CCCC5)c5c(N)ncnc54)[C@H](O)[C@@H]3O)cc2n1` [I-39], for which the IC50 in assay [1] (setting [5]) is less than 10 nM; in assay [2] (setting [6]), greater than 1000 nM; in assay [3], 1000 to 10000 nM; in assay [4] (setting [7]), less than 10 nM.

Turning to `CNc1ccc2ccc(OC[C@H]3O[C@@H](n4cc(-c5ccn(C)n5)c5c(N)ncnc54)[C@@H](F)[C@@H]3O)cc2n1` [I-12], the IC50 in assay [1] (setting [8]) is 10 to 100 nM; in assay [3], less than 1000 nM; in assay [4] (setting [9]), less than 10 nM.

Take `CNc1ccc2ccc(OC[C@H]3O[C@@H](n4cc(Br)c5c(N)ncnc54)[C@H](O)[C@@H]3O)cc2n1` [I-73]: the IC50 is less than 10 nM in assay [1] (setting [5]), greater than 1000 nM in assay [2] (setting [6]), 1000 to 10000 nM in assay [3] and less than 10 nM in assay [4] (setting [7]).

For `Cn1ccc(-c2cn([C@@H]3O[C@H](COc4ccc5ccc(N6CCC6)nc5c4)[C@@H](O)[C@@H]3F)c3ncnc(N)c23)n1` [I-149], the IC50 in assay [1] (setting [8]) is greater than 1000 nM; in assay [2] (METTL1 biochemical assay, read-out: METTL1 IC50), greater than 1000 nM; in assay [3] it was less than 1000 nM; in assay [4] (setting [9]) it was less than 10 nM.

Turning to `CNc1ccc2ccc(OC[C@H]3O[C@@H](n4cc(Cl)c5c(N)ncnc54)[C@H](O)[C@@H]3O)cc2n1` [I-70], the IC50 in assay [1] (setting [5]) is less than 10 nM; in assay [2] (setting [6]), greater than 1000 nM; in assay [3], 1000 to 10000 nM; in assay [4] (setting [7]) it was less than 10 nM.

Regarding `CNc1ccc2ccc(OC[C@H]3O[C@@H](n4cc(CC5CCCC5)c5c(N)ncnc54)[C@H](O)[C@@H]3O)cc2n1` [I-23], the IC50 in assay [1] (setting [5]) is 10 to 100 nM; in assay [2] (setting [6]), greater than 1000 nM; in assay [3], greater than 10000 nM; in assay [4] (setting [7]), less than 10 nM.

In the case of `CCNc1ccc2ccc(OC[C@H]3O[C@@H](n4cc(-c5cn(C)cn5)c5c(N)ncnc54)[C@@H](F)[C@@H]3O)cc2n1` [I-10], the results for the IC50 in assay [1] (setting [8]), in assay [3] and in assay [4] (setting [9]) were 100 to 1000 nM, 1000 to 10000 nM and less than 10 nM, respectively.
